Legend:
[1] = tested on: HLEpiC; experiment: Inhibitory action on cell migration (Oris Cell Migration plate); format: cell-based, human; settings: about 24 and 48 hours after treatment
Description: HLEpiC was diluted with a medium (Epithelial Cell Medium) and dispensed to Poly-L-lysine coated Oris™ Cell Migration 96 well plate, to which a stopper was firmly attached, at 50 μL/well (25000 cells/well) and cultured in a carbon dioxide incubator (37° C., 5% CO2) for 24 hours. The stopper was removed, and after brief washing with the medium, a solution obtained by adding 5 μL of 10 mM Cell Tracker Green Fluorescent Probe (Lonza Walkersville, Inc.) to 4995 μL of the medium was added at 100 μL/well, and the cells were stained in a carbon dioxide incubator (37° C., 5% CO2) for about 30 minutes. After brief washing with the medium, the medium was further added and the cells were cultured in a carbon dioxide incubator (37° C., 5% CO2) for about 30 minutes.
After brief washing with the medium, a test substance, a positive control, a comparative control or the medium (control) at each concentration given below was added at 100 μL/well.
Test substance: Ripasudil with a concentration of […], 100 μM or 1 mM,
Positive control: CD with a concentration of 2 μM,
These were cultured in a carbon dioxide incubator (37° C., 5% CO2). The state of HLEpiC in the Detection Zone in each sample was observed by a confocal laser scanning microscope about 24 hours after the treatment and 48 hours after the treatment.

[2] = tested on: Human lens epithelial cells (SRA01/04); experiment: Action on DNA synthesis capability (BrdU uptake) of human lens epithelial cell line; format: cell-based; settings: 24 hours
Description: Human lens epithelial cells (SRA01/04 (Riken Cell Bank)) were cultured using 20% FBS-DMEM medium under conditions of 37° C. and 5% CO2. The concentration of SRA01/04 was adjusted using 2% FBS-DMEM, and the cells were seeded in a 96 Well Plate at 100 μL/well (5000 cells/well) and cultured under conditions of 37° C. and 5% CO2 for 24 hours. The medium was exchanged with 5% FBS-DMEM medium, and TGFβ at 10 ng/mL (final concentration) or Ripasudil at 10, 30 or 100 μM (final concentration) was added to each well, and the cells were cultured for another 24 hours. The uptake rate of 5-bromo-2′-deoxyuridine (BrdU) in the cells was measured using Cell Proliferation ELISA, BrdU (colorimetric) kit (Roche) at a measurement wavelength of 450 nm by Multiskan MS version 8.0 (LABSYSTEMS), and cell proliferation properties were evaluated.

[3] = tested on: Human lens epithelial cells (HLEpiC); experiment: Reversibility of inhibition of actin stress fiber formation after removal; format: cell-based; settings: recultured about 24 hours after removal
Description: After removal of the test substance, positive control or comparative control in Example 1, the cells were recultured for about another 24 hours, treated in accordance with the operation in Example 1, and then observed by a confocal laser scanning microscope in the same manner as in Example 1 to observe the reversibility of actin stress fibers.

[4] = tested on: HLEpiC; experiment: Reversibility of inhibition of cell migration after removal; format: cell-based, human; settings: for time after removal at which Detection Zone was filled with HLEpiC: then removal
Description: After the operation in Example 4, the test substance, the positive control, or the comparative control was removed, and after brief washing with the medium, the medium was added at 100 μL/well, and the cells were cultured in a carbon dioxide incubator (37° C., 5% CO2).

[5] = tested on: Human lens epithelial cells (HLEpiC); experiment: Inhibitory action on actin stress fiber formation (phalloidin staining, confocal microscopy); format: cell-based; settings: treated about an hour
Description: Human lens epithelial cells (HLEpiC (ScienCell Research Laboratories)) were diluted with a medium (Epithelial Cell Medium (ScienCell Research Laboratories)), dispensed to each well of Poly-L-lysine (ScienCell Research Laboratories) coated Imaging Chamber CG at 100 μL/well (about 5000 cells/cm^2), and cultured in a carbon dioxide incubator (37° C., 5% CO2) until about 50% confluent. The medium was removed with vacuum suction and a test substance, a positive control, a comparative control, or the medium (control) at each concentration given below was added to each well at 300 μL/well:
Test substance: Ripasudil with a concentration of 10 μM, 100 μM or 1 mM,
Positive control: Cytochalasin D with a concentration of 2 μM,
These were treated in a carbon dioxide incubator (37° C., 5% CO2) for about an hour, and then washed once with the medium. 4% Paraformaldehyde Phosphate Buffer Solution (Wako Pure Chemical Industries, Ltd.) (hereinafter, referred to as a fixative solution) was added at 300 μL/well, and fixation was carried out at room temperature for 2 minutes. After washing with the medium, 0.5% Triton X-100 (Roche Diagnostics K.K.) was added at 300 μL/well, and penetrated at room temperature for 2 minutes. After washing with the medium, the fixative solution was added at 300 μL/well, and fixation was carried out at room temperature for 20 minutes.
Separately, 25 μL of 14 μM Actin-Stain™ 555 phalloidin (Cytoskeleton, Inc.) (hereinafter, referred to as Phalloidin) was added to 3475 μL of 10 mM phosphate buffered saline (Wako Pure Chemical Industries, Ltd.) to produce 100 nM Phalloidin.
This 100 nM Phalloidin was added to each well washed with the medium at 200 μL/well, and staining was carried out at room temperature in a dark place for about 60 minutes.
After washing with the medium, the chamber was removed, and […] Mounting Medium with DAPI (Vector Laboratories, Inc.) was dropped onto a cover glass with a few drops. A slide glass was placed thereon and this was left to stand at room temperature in a dark place for 30 minutes or more, and adhesion and nuclear staining were carried out and then observed by a confocal laser scanning microscope.

[6] = tested on: HT-1080 cell-containing collagen gel; experiment: Inhibitory action on collagen gel contraction; format: cell-based; set-up: key: +: a contraction level was almost equal to that of a group to which Ripasudil was not added; ++: contraction was inhibited; +++: contraction was significantly inhibited; settings: HT1080 collagen gel, two or three days
Description: HT-1080 cell suspension adjusted to a density of 150000 to 200000 cells/mL with a medium (medium: E'MEM (Sigma)/10% FBS/NEAA/PCSM), and a solution, obtained by mixing A, B and C solutions (A solution: Cellmatrix (Collagen Type I 3 mg/mL), B solution: concentrated culture solution, 10×MEM Hank's culture solution, and C solution: buffer solution for reconstitution) of collagen gel culture kit (Nitta Gelatin Inc.) mixed at a ratio of 8:1:1 and cooling the obtained mixture, were mixed at a ratio of 1.4:1, and the obtained mixture was seeded in a 48 Well Plate at 500 μL/well and gelatinized in a CO2 incubator to produce a cell-containing collagen gel. After gelation, 1 mL of the medium in which Ripasudil was adjusted to 0.1 μM, 1 μM or 10 μM was added on the gel, and an injection needle was inserted between the gel and the wall surface to release the gel from the wall surface, and the gel was incubated to stand in a CO2 incubator. After two or three days, the contraction of the gel was observed, and photos were taken to evaluate the actions of Ripasudil.

## C[C@H]1CNCCCN1S(=O)(=O)c1cccc2cncc(F)c12 [Ripasudil, 4-fluoro-5-{[(2S)-2-methyl-1,4-diazepan-1-yl]sulfonyl}isoquinoline]
[1]; 100 μM
  cell migration into Detection Zone (observation): tendency of inhibition of cell migration
[1]; 1 mM
  cell migration into Detection Zone (observation): definite inhibitory action on cell migration
[2]; 30 μM
  DNA synthesis capability (BrdU uptake) of SRA01/04: statistically significant decrease
[2]; 10, 30 or 100 μM
  DNA synthesis capability (BrdU uptake) of SRA01/04: dose-dependent inhibitory action
[3]; 100 μM
  reversibility of actin stress fibers: recovered
[3]; 1 mM
  reversibility of actin stress fibers: recovered
[4]; 100 μM treatment
  time after removal at which Detection Zone was filled with HLEpiC: about 24 hours
[4]; 1 mM treatment, about 48 hours after removal
  state of Detection Zone about 48 hours after removal: not filled with HLEpiC
[4]; 1 mM treatment
  time after removal at which Detection Zone was filled with HLEpiC: 116 h
[5]; 10 μM
  actin stress fibers (observation): slightly disappear
[5]; 100 μM
  actin stress fibers (observation): significantly disappear
[5]; 1 mM
  actin stress fibers (observation): significantly disappear
[6]; Ripasudil 0.1 μM
  Inhibition of contraction: +
[6]; Ripasudil 1.0 μM
  Inhibition of contraction: ++
[6]; Ripasudil 10.0 μM
  Inhibition of contraction: +++
